Reference: PMC5452035, “Structural insight into recognition of phosphorylated threonine‐4 of RNA polymerase II C‐terminal domain by Rtt103p” (EMBO Reports, 2017)
Where a chain is given by its changes, count along the chain named. Non-standard residues stand in square brackets, D forms with d. No end group written: not given here. pY = N[C@@H](Cc1ccc(OP(=O)(O)O)cc1)C(=O)O; FAM = 5,6-carboxyfluorescein

Legend:
Rtt103p CID = target: T1, Rtt103p CID (Saccharomyces cerevisiae, UniProt Q05543); experiment: Equilibrium binding by fluorescence anisotropy (FA), wild-type Rtt103p CID; set-up: species or system yeast
T1 construct: Rtt103p CID (3‐131–6xHIS) was expressed and purified as previously described; 6xHis (C); made in house; host or cells: E. coli BL21-Codon Plus (DE3)-RIPL
T1 sequence (Q05543 3-131): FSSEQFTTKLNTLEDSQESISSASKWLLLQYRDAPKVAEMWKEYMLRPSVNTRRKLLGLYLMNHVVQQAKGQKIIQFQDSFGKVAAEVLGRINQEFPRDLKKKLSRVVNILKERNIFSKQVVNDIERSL

Rtt103p CID Q19A = target: T2, Rtt103p CID Q19A (Saccharomyces cerevisiae, UniProt Q05543, Q19A); experiment: Equilibrium binding by fluorescence anisotropy (FA), Rtt103p CID Q19A mutant; set-up: species or system yeast; conditions: Rtt103p CID Q19A mutant titrated into 10 nM FAM‐labelled CTD peptide, 10°C, pH 6.8, ± standard deviation of the fit
T2 construct: Rtt103p CID (3‐131–6xHIS) was expressed and purified as previously described; 6xHis (C); made in house; host or cells: E. coli BL21-Codon Plus (DE3)-RIPL
T2 sequence (Q05543 3-131 Q19A): T1 sequence (Q05543 3-131) with Q17A
Procedure: The equilibrium binding of Rtt103p CID constructs to differently phosphorylated CTD was analysed by fluorescence anisotropy. The CTD peptides were N‐terminally labelled with the 5,6‐carboxyfluorescein (FAM). The measurements were conducted on a FluoroLog‐3 spectrofluorometer (Horiba Jobin‐Yvon Edison, NJ). The instrument was equipped with a thermostatted cell holder with a Neslab RTE7 water bath (Thermo Scientific). Samples were excited with vertically polarized light at 467 nm, and both vertical and horizontal emissions were recorded at 516 nm. All measurements were conducted at 10°C in 35 mM KH2PO4, 100 mM KCl (pH 6.8). Each data point is an average of three measurements. The experimental binding isotherms were analysed by DynaFit using 1:1 model with non‐specific binding 39.

C[C@@H](O)[C@H](NC(=O)[C@@H]1CCCN1C(=O)[C@H](CO)NC(=O)[C@H](Cc1ccc(O)cc1)NC(=O)[C@H](CO)NC(=O)[C@@H]1CCCN1C(=O)[C@H](CO)NC(=O)[C@@H](NC(=O)[C@@H]1CCCN1C(=O)[C@H](COP(=O)(O)O)NC(=O)[C@H](Cc1ccc(O)cc1)NC(=O)[C@H](CO)NC(=O)[C@@H]1CCCN1C(=O)c1ccc2c(c1)C(=O)OC21c2ccc(O)cc2Oc2cc(O)ccc21)[C@@H](C)OP(=O)(O)O)C(=O)N[C@@H](CO)C(=O)N1CCC[C@H]1C(=O)N[C@@H](CO)C(=O)O [PS YpSPpTSPS YSPTSPS]
Kd (Rtt103p CID): 43 ± 2 µM

C[C@@H](OP(=O)(O)O)[C@H](NC(=O)[C@@H]1CCCN1C(=O)[C@H](CO)NC(=O)[C@H](Cc1ccc(O)cc1)NC(=O)[C@H](CO)NC(=O)[C@@H]1CCCN1C(=O)[C@H](CO)NC(=O)[C@@H](NC(=O)[C@@H]1CCCN1C(=O)[C@H](CO)NC(=O)[C@H](Cc1ccc(O)cc1)NC(=O)[C@H](CO)NC(=O)[C@@H]1CCCN1C(=O)c1ccc2c(c1)C(=O)OC21c2ccc(O)cc2Oc2cc(O)ccc21)[C@@H](C)OP(=O)(O)O)C(=O)N[C@@H](CO)C(=O)N1CCC[C@H]1C(=O)N[C@@H](CO)C(=O)O [Doubly phosphorylated pThr4‐CTD]
Kd (Rtt103p CID): 6 ± 0.2 µM

C[C@@H](O)[C@H](NC(=O)[C@@H]1CCCN1C(=O)[C@H](CO)NC(=O)[C@H](Cc1ccc(O)cc1)NC(=O)[C@H](CO)NC(=O)[C@@H]1CCCN1C(=O)[C@H](CO)NC(=O)[C@@H](NC(=O)[C@@H]1CCCN1C(=O)[C@H](CO)NC(=O)[C@H](Cc1ccc(O)cc1)NC(=O)[C@H](CO)NC(=O)[C@@H]1CCCN1C(=O)c1ccc2c(c1)C(=O)OC21c2ccc(O)cc2Oc2cc(O)ccc21)[C@@H](C)OP(=O)(O)O)C(=O)N[C@@H](CO)C(=O)N1CCC[C@H]1C(=O)N[C@@H](CO)C(=O)O [pThr4‐CTD]
Kd (Rtt103p CID): 15 ± 1 µM | Kd (Rtt103p CID Q19A): 48 ± 5 µM

C[C@@H](O)[C@H](NC(=O)[C@@H]1CCCN1C(=O)[C@H](CO)NC(=O)[C@H](Cc1ccc(O)cc1)NC(=O)[C@H](CO)NC(=O)[C@@H]1CCCN1C(=O)[C@H](CO)NC(=O)[C@@H](NC(=O)[C@@H]1CCCN1C(=O)[C@H](COP(=O)(O)O)NC(=O)[C@H](Cc1ccc(O)cc1)NC(=O)[C@H](CO)NC(=O)[C@@H]1CCCN1C(=O)c1ccc2c(c1)C(=O)OC21c2ccc(O)cc2Oc2cc(O)ccc21)[C@@H](C)O)C(=O)N[C@@H](CO)C(=O)N1CCC[C@H]1C(=O)N[C@@H](CO)C(=O)O [pSer2‐CTD]
Kd (Rtt103p CID): 6 ± 0.2 µM

PS pYSPTSPS YSPTSPS: FAM‐labelled CTD peptide with the pTyr1 mark in the central heptad ({FAM}-PS[pY]SPTSPSYSPTSPS)
binding with Rtt103p (in words) (Rtt103p CID; fluorescence anisotropy, 10 nM FAM‐labelled CTD peptide, 10°C, pH 6.8): completely abolished the binding
